Laboratory results: US20040254162A1, “Oxazolidinone derivatives as antimicrobials” (priority 2001, published 2004)
Values after ≈ are worked out from the molar mass of the structure shown. Where two headings read alike, the source gives them in different places.

Tests used:
E. faecalis = experiment: Summary of in vitro activity (MIC); details: E. faecalis; for MIC50 / MIC90: Number 7
MRSA 33 = experiment: MIC, agar incorporation method; details: agar incorporation
S. aureus = experiment: Summary of in vitro activity (MIC); details: S. aureus; for MIC50 / MIC90: Number 8
Strep. pyog. ATCC 19615 = experiment: MIC, agar incorporation method; details: agar incorporation
VRE 6A (Ent. faecium 6A) = experiment: MIC, agar incorporation method; details: agar incorporation
S. pneumoniae = experiment: Summary of in vitro activity (MIC); details: S. pneumoniae; for MIC50 / MIC90: Number 19
Ent. faecalis ATCC 29212 = experiment: MIC, agar incorporation method; details: agar incorporation
MRSA 15187 = experiment: MIC, agar incorporation method; details: agar incorporation
MRSA 562 [1] = experiment: MIC, agar incorporation method; details: for MIC: MRSA 562, Table 5
MRSA 562 [2] = experiment: In vivo activity against MRSA 562 (ED50); parameters: species or system Methicillin Resistant Staphylococcus aureus; details: PO; MRSA 562 infection
G +ve bacteria = experiment: Summary of in vitro activity (MIC); details: for MIC50 / MIC90: G +ve, Number 49; for Geometric Mean of in vitro activity (MIC): Gram + ve
S. pneum AB 34 = experiment: MIC, agar incorporation method; details: agar incorporation
S. aureus ATCC 25923 = experiment: MIC, agar incorporation method; details: agar incorporation
Strep. pne. ATCC 6303 = experiment: MIC, agar incorporation method; details: agar incorporation
Bacteroides fragilis = experiment: Agar dilution MIC, anaerobes; type: cell-based; details: single isolates, anaerobic agar dilution; for MIC: Bacteroides fragilis, read-out: MIC Bacteroides fragilis
Clostridium difficile = experiment: Agar dilution MIC, anaerobes; type: cell-based; details: single isolates, anaerobic agar dilution; for MIC: Clostridioides difficile, read-out: MIC Clostridium difficile
Eubacterium leutum = experiment: Agar dilution MIC, anaerobes; type: cell-based; details: single isolates, anaerobic agar dilution; for MIC: Eubacterium, read-out: MIC Eubacterium leutum
Porphyromonas gingivalis = experiment: Agar dilution MIC, anaerobes; type: cell-based; details: Porphyromonas gingivalis; single isolate, anaerobic agar dilution; read-out: MIC Porphyromonas gingivalis
anaerobic bacteria = experiment: Agar dilution method for anaerobic bacteria, summary; type: cell-based
[3] = tested on: Peptostreptococcus tetradius; experiment: Agar dilution MIC, anaerobes; type: cell-based; details: single isolates, anaerobic agar dilution; for MIC: Anaerococcus tetradius, read-out: MIC Peptostreptococcus tetradius
Clostridium camis = experiment: Agar dilution MIC, anaerobes; type: cell-based; details: Clostridium; single isolates, anaerobic agar dilution; read-out: MIC Clostridium camis
Fusobacterium nucleatum = experiment: Agar dilution MIC, anaerobes; type: cell-based; details: single isolates, anaerobic agar dilution; for MIC: Fusobacterium nucleatum, read-out: MIC Fusobacterium nucleatum
[4] = tested on: Porphyromonas asaccharolytica; experiment: Agar dilution MIC, anaerobes; type: cell-based; details: Porphyromonas asaccharolytica; single isolate, anaerobic agar dilution; read-out: MIC Porphyromonas asaccharolytica
P. acnes = experiment: Agar dilution MIC, anaerobes; type: cell-based; details: single isolates, anaerobic agar dilution; for MIC: Cutibacterium acnes, read-out: MIC P. acnes
Prevotella bivia = experiment: Agar dilution MIC, anaerobes; type: cell-based; details: Prevotella bivia; single isolate, anaerobic agar dilution; read-out: MIC Prevotella bivia
[5] = tested on: Peptostreptococcus prevotii; experiment: Agar dilution MIC, anaerobes; type: cell-based; details: single isolates, anaerobic agar dilution; for MIC: Anaerococcus prevotii, read-out: MIC Peptostreptococcus prevotii
Fusobacterium necrogenes = experiment: Agar dilution MIC, anaerobes; type: cell-based; details: Fusobacterium necrogenes; single isolate, anaerobic agar dilution; read-out: MIC Fusobacterium necrogenes
Fusobacterium montiferum = experiment: Agar dilution MIC, anaerobes; type: cell-based; details: single isolates, anaerobic agar dilution; for MIC: Fusobacterium, read-out: MIC Fusobacterium montiferum
Prevotella intermedia = experiment: Agar dilution MIC, anaerobes; type: cell-based; details: Prevotella intermedia, single isolates, anaerobic agar dilution; read-out: MIC Prevotella intermedia
[6] = tested on: Prevotella (Bacteroides) disiens; experiment: Agar dilution MIC, anaerobes; type: cell-based; details: single isolates, anaerobic agar dilution; for MIC: read-out: MIC Prevotella (Bacteroides) disiens
Clostridium perfringens = experiment: microbe, parasite or virus in culture; type: cell-based; details: for MIC: Clostridium perfringens, read-out: MIC Clostridium perfringens, single isolates, anaerobic agar dilution
[7] = tested on: Peptostreptococcus asaccharolyticus; experiment: Agar dilution MIC, anaerobes; type: cell-based; details: single isolates, anaerobic agar dilution
[8] = tested on: Prevotella melaninogenica; experiment: Agar dilution MIC, anaerobes; type: cell-based; details: Prevotella melaninogenica, single isolates, anaerobic agar dilution; read-out: MIC Prevotella melaninogenica

CC(=O)NC[C@H]1CN(c2ccc(N3CCN(Cc4ccc([N+](=O)[O-])o4)CC3)c(F)c2)C(=O)O1 [Compound No. 15, (S)-N-[[3-[3-fluoro-4-[N-1-[4-{2-furyl-(5-nitro)methyl}]piperazinyl]phenyl]-2-oxo-5-oxazolidinyl]methyl]acetamide]
Geometric Mean of in vitro activity (MIC) (E. faecalis): 1.6 µg/mL
MIC50 (E. faecalis): 2 µg/mL (≈ 4.33 µM)
MIC90 (E. faecalis): 2 µg/mL (≈ 4.33 µM)
MIC MRSA 33 (MRSA 33): 2 µg/mL (≈ 4.33 µM)
Geometric Mean of in vitro activity (MIC) (S. aureus): 1.63 µg/mL
MIC50 (S. aureus): 2 µg/mL (≈ 4.33 µM)
MIC90 (S. aureus): 2 µg/mL (≈ 4.33 µM)
MIC S. pyogenes 19615 (Strep. pyog. ATCC 19615): 1 µg/mL (≈ 2.17 µM)
MIC VRE 6A (VRE 6A (Ent. faecium 6A)): 1 µg/mL (≈ 2.17 µM)
Geometric Mean of in vitro activity (MIC) (S. pneumoniae): 1.04 µg/mL
MIC50 (S. pneumoniae): 2 µg/mL (≈ 4.33 µM)
MIC90 (S. pneumoniae): 4 µg/mL (≈ 8.67 µM)
MIC E. faecalis 29212 (Ent. faecalis ATCC 29212): 2 µg/mL (≈ 4.33 µM)
MIC MRSA 15187 (MRSA 15187): 2 µg/mL (≈ 4.33 µM)
MIC (MRSA 562 [1]): 2 µg/mL (≈ 4.33 µM)
MIC MRSA 562 (MRSA 562 [1]; agar incorporation, Table 1): 2 µg/mL (≈ 4.33 µM)
ED50 (mg/kg body weight) PO (MRSA 562 [2]): 4.33 mg/kg body weight
MIC50 (G +ve bacteria): 1 µg/mL (≈ 2.17 µM)
MIC90 (G +ve bacteria): 2 µg/mL (≈ 4.33 µM)
Geometric Mean of in vitro activity (MIC) (G +ve bacteria): 1.08 µg/mL
MIC S. pneum AB 34 (S. pneum AB 34): 2 µg/mL (≈ 4.33 µM)
MIC S. aureus 25923 (S. aureus ATCC 25923): 2 µg/mL (≈ 4.33 µM)
MIC S. pneum 6303 (Strep. pne. ATCC 6303): 1 µg/mL (≈ 2.17 µM)

COc1c(N2CCNC(C)C2)c(F)cc2c(=O)c(C(=O)O)cn(C3CC3)c12 (stereo not shown) [Gatifloxacin]
MIC (Bacteroides fragilis): 1 µg/mL (≈ 2.66 µM)
MIC (Clostridium difficile): 1 µg/mL (≈ 2.66 µM)
MIC Clostridium difficile (Clostridium difficile): 2 µg/mL (≈ 5.33 µM)
MIC (Eubacterium leutum): 0.25 µg/mL (≈ 0.666 µM)
MIC Eubacterium leutum (Eubacterium leutum): 0.5 µg/mL (≈ 1.33 µM)
MIC (Porphyromonas gingivalis): 0.06 µg/mL (≈ 0.16 µM)
Geometric Mean (anaerobic bacteria; anaerobes): 0.659 µg/mL
MIC Range (anaerobic bacteria; anaerobes): 0.06 to 32 µg/mL
MIC50 (anaerobic bacteria; anaerobes, Wilkins Chalgren agar, 48 hour, read-out: MIC50): 0.5 µg/mL (≈ 1.33 µM)
MIC90 (anaerobic bacteria; anaerobes, Wilkins Chalgren agar, 48 hour, read-out: MIC90): 2 µg/mL (≈ 5.33 µM)
MIC [3]: 1 µg/mL (≈ 2.66 µM)
MIC Peptostreptococcus tetradius [3]: 0.5 µg/mL (≈ 1.33 µM)
MIC (Clostridium camis): 0.25 µg/mL (≈ 0.666 µM)
MIC (Fusobacterium nucleatum): 0.25 µg/mL (≈ 0.666 µM)
MIC Fusobacterium nucleatum (Fusobacterium nucleatum): 0.5 µg/mL (≈ 1.33 µM)
MIC [4]: 0.25 µg/mL (≈ 0.666 µM)
MIC (P. acnes): 0.25 µg/mL (≈ 0.666 µM)
MIC P. acnes (P. acnes): 0.125 µg/mL (≈ 0.333 µM)
MIC (Prevotella bivia): 2 µg/mL (≈ 5.33 µM)
MIC [5]: 0.5 µg/mL (≈ 1.33 µM)
MIC Peptostreptococcus prevotii [5]: 1 µg/mL (≈ 2.66 µM)
MIC (Fusobacterium necrogenes): 0.5 µg/mL (≈ 1.33 µM)
MIC (Fusobacterium montiferum): 0.25 µg/mL (≈ 0.666 µM)
MIC Fusobacterium montiferum (Fusobacterium montiferum): 0.5 µg/mL (≈ 1.33 µM)
MIC (Prevotella intermedia): 0.25 µg/mL (≈ 0.666 µM)
MIC [6]: 1 µg/mL (≈ 2.66 µM)
MIC (Clostridium perfringens): 1 µg/mL (≈ 2.66 µM)

COc1c(N2C[C@@H]3CCCN[C@@H]3C2)c(F)cc2c(=O)c(C(=O)O)cn(C3CC3)c12 [Moxifloxacin]
MIC (Bacteroides fragilis): 0.25 µg/mL (≈ 0.623 µM)
MIC Bacteroides fragilis (Bacteroides fragilis): 0.5 µg/mL (≈ 1.25 µM)
MIC (Eubacterium leutum): 0.5 µg/mL (≈ 1.25 µM)
MIC (Porphyromonas gingivalis): 0.03 µg/mL (≈ 0.0747 µM)
MIC ([7]; Peptoniphilus asaccharolyticus): 0.125 µg/mL (≈ 0.311 µM)
MIC Peptostreptococcus asaccharolyticus [7]: 0.25 µg/mL (≈ 0.623 µM)
MIC [3]: 0.5 µg/mL (≈ 1.25 µM)
MIC (Clostridium camis): 0.25 µg/mL (≈ 0.623 µM)
MIC (Fusobacterium nucleatum): 0.125 µg/mL (≈ 0.311 µM)
MIC Fusobacterium nucleatum (Fusobacterium nucleatum): 0.25 µg/mL (≈ 0.623 µM)
MIC [4]: 0.5 µg/mL (≈ 1.25 µM)
MIC (P. acnes): 0.25 µg/mL (≈ 0.623 µM)
MIC P. acnes (P. acnes): 0.125 µg/mL (≈ 0.311 µM)
MIC [5]: 0.25 µg/mL (≈ 0.623 µM)
MIC (Fusobacterium necrogenes): 1 µg/mL (≈ 2.49 µM)
MIC (Fusobacterium montiferum): 0.25 µg/mL (≈ 0.623 µM)
MIC Fusobacterium montiferum (Fusobacterium montiferum): 0.5 µg/mL (≈ 1.25 µM)
MIC (Prevotella intermedia): 0.5 µg/mL (≈ 1.25 µM)
MIC Prevotella (Bacteroides) disiens [6]: 0.5 µg/mL (≈ 1.25 µM)
MIC [6]: 0.25 µg/mL (≈ 0.623 µM)

CCC[C@@H]1C[C@@H](C(=O)N[C@@H]([C@H]2O[C@H](SC)[C@H](O)[C@@H](O)[C@H]2O)[C@H](C)Cl)N(C)C1 [Clindamycin]
MIC (Clostridium difficile): 2 µg/mL (≈ 4.71 µM)
MIC Clostridium difficile (Clostridium difficile): 4 µg/mL (≈ 9.41 µM)
MIC (Porphyromonas gingivalis): ≤ 0.016 µg/mL
MIC50 (anaerobic bacteria; 48 h): 0.125 µg/mL (≈ 0.294 µM)
MIC90 (anaerobic bacteria; 48 h): 8 µg/mL (≈ 18.8 µM)
Geometric Mean (anaerobic bacteria; anaerobes): 0.208 µg/mL
MIC Range (anaerobic bacteria; anaerobes): 0.008 to 64 µg/mL
MIC (Clostridium camis): 0.03 µg/mL (≈ 0.0706 µM)
MIC [4]: ≤ 0.016 µg/mL
MIC (P. acnes): 0.06 µg/mL (≈ 0.141 µM)
MIC (Prevotella bivia): > 32 µg/mL
MIC [5]: 0.25 µg/mL (≈ 0.588 µM)
MIC Peptostreptococcus prevotii [5]: 0.125 µg/mL (≈ 0.294 µM)
MIC (Fusobacterium necrogenes): 0.03 µg/mL (≈ 0.0706 µM)
MIC (Prevotella intermedia): ≤ 0.016 µg/mL
MIC [8]: ≤ 0.016 µg/mL
MIC Prevotella (Bacteroides) disiens [6]: 4 µg/mL (≈ 9.41 µM)
MIC [6]: 8 µg/mL (≈ 18.8 µM)
MIC (Clostridium perfringens): 1 µg/mL (≈ 2.35 µM)
MIC Clostridium perfringens (Clostridium perfringens; single isolates, anaerobic agar dilution): 0.5 µg/mL (≈ 1.18 µM)

CC(=O)NC[C@H]1CN(c2ccc(N3CCN(C(=O)c4ccc([N+](=O)[O-])o4)CC3)c(F)c2)C(=O)O1 [Compound No. 06, (S)-N-[[3-Fluoro-4-[N-1[4-(5-nitro-2-furoyl)piperazinyl]phenyl]-2-oxo-5-oxazolidinyl]methyl]acetamide]
Geometric Mean of in vitro activity (MIC) (E. faecalis): 0.92 µg/mL
MIC50 (E. faecalis): 1 µg/mL (≈ 2.1 µM)
MIC90 (E. faecalis): 1 µg/mL (≈ 2.1 µM)
MIC MRSA 33 (MRSA 33): 0.5 µg/mL (≈ 1.05 µM)
Geometric Mean of in vitro activity (MIC) (S. aureus): 0.74 µg/mL
MIC50 (S. aureus): 1 µg/mL (≈ 2.1 µM)
MIC90 (S. aureus): 1 µg/mL (≈ 2.1 µM)
MIC S. pyogenes 19615 (Strep. pyog. ATCC 19615): 2 µg/mL (≈ 4.21 µM)
MIC VRE 6A (VRE 6A (Ent. faecium 6A)): 1 µg/mL (≈ 2.1 µM)
Geometric Mean of in vitro activity (MIC) (S. pneumoniae): 1.27 µg/mL
MIC50 (S. pneumoniae): 2 µg/mL (≈ 4.21 µM)
MIC90 (S. pneumoniae): 2 µg/mL (≈ 4.21 µM)
MIC E. faecalis 29212 (Ent. faecalis ATCC 29212): 1 µg/mL (≈ 2.1 µM)
MIC MRSA 15187 (MRSA 15187): 0.5 µg/mL (≈ 1.05 µM)
MIC (MRSA 562 [1]): 1 µg/mL (≈ 2.1 µM)
ED50 (mg/kg body weight) PO (MRSA 562 [2]): >25 mg/kg body weight
MIC50 (G +ve bacteria): 1 µg/mL (≈ 2.1 µM)
MIC90 (G +ve bacteria): 2 µg/mL (≈ 4.21 µM)
Geometric Mean of in vitro activity (MIC) (G +ve bacteria): 0.79 µg/mL
MIC S. pneum AB 34 (S. pneum AB 34): 2 µg/mL (≈ 4.21 µM)
MIC S. aureus 25923 (S. aureus ATCC 25923): 1 µg/mL (≈ 2.1 µM)
MIC S. pneum 6303 (Strep. pne. ATCC 6303): 2 µg/mL (≈ 4.21 µM)
